Where a name gives a salt, the structure may show the parent alone.
Assays:
human c-mpl-Ba/F3 cells [1] = assay: Human c-mpl-Ba/F3 cell proliferation test; format: cell-based; conditions: for pot.: concentration promoting cell proliferation to 30% of maximum cell proliferation activity value of Example 9 (of rhTPO for rhTPO), 24 hours culture; for Efficacy: maximum cell proliferation activity, maximum of Example 9 (of rhTPO for rhTPO) set to 100%
Method: In a 96 well microplate, 2×10^5 cells/ml of human c-mpl-Ba/F3 cells were cultured at 37° C. for 24 hours with 10% fetal bovine serum containing a RPMI1640 medium (100 μl/well) to which varied concentrations of tested compounds were respectively added. After the culturing, 10 μl/well of WST-1/1-methoxy PMS (cell counting kit, Dojindo) were added. Immediately after the adding and after 2 hours, absorbance of A450/A650 was measured with a microplate reader (Model 3350:Bio-Rad), and the absorbance increase after 2 hours was regarded as proliferation activity of each tested compound.
pot.: Concentration of tested compound for promoting cell proliferation of the compound of Example 9 (compound of Example 9 and rhTPO in rhTPO) to 30% of maximum cell proliferation activity value.
Efficacy: Maximum cell proliferation activity value of tested compound when the maximum cell proliferation activity value of the compound of Example 9 (compound of Example 9 and rhTPO in rhTPO) is set to 100%.

human c-mpl-Ba/F3 cells [2] = assay: Oral administration test for mice (c-mpl-Ba/F3 proliferation activity of plasma); format: in vivo; conditions: male ICR mice, final plasma concentration 10%, maximum of each tested compound = 100%
Method: To male ICR mice, a tested compound dissolved or suspended in 0.5% methylcellulose aqueous solution was orally administrated in an amount of 100 mg/kg or 10 mg/kg. […] Plasma obtained by centrifugation at 12,000 rpm for 3 minutes was warmed up at 56° C. for 30 minutes, and added to the human c-mpl.Ba/F3 cell proliferation system described in (i) such that the final plasma concentration became 10%, and then cell proliferation activity was measured. The cell proliferation activity (%) of each plasma batch, when maximum cell proliferation activity of each tested compound was set to 100%, was calculated.

Human CD34+ cells = assay: Test for measuring effects of promoting the formation of megakaryocytic colonies; format: cell-based; conditions: megakaryocytic colonies per well, 10-14 days
Method: Human CD34^+ cells were cultured at 37° C. for 10-14 days in the presence of tested materials in a 2 well chamber slide, using MegaCult™-C (Stem Cell Technologies). In accordance with the attached instructions, dehydration, fixing, and staining with antihuman glycoprotein IIb/IIIa antibody were carried out. A group of 3 or more stained megakaryocytes was regarded as 1 colony, and the number of colonies per well was measured with a microscope. EC30 values of each tested compound were calculated from a capacity curve.

[3] = plasma 2 hours after 100 mg/kg p.o.
[4] = plasma 2 hours after 10 mg/kg p.o.

Compound | pot. (human c-mpl-Ba/F3 cells [1]) | Efficacy (human c-mpl-Ba/F3 cells [1]) | Cell proliferation activity (human c-mpl-Ba/F3 cells [2]; [3]) | EC30 (Human CD34+ cells) | Cell proliferation activity (human c-mpl-Ba/F3 cells [2]; [4])
CCCN1CCN(c2sc(NC(=O)c3ccc(OCCO)c(Cl)c3)nc2-c2cc(Cl)cs2)CC1 [Example 103, 3-chloro-N-[4-(4-chlorothiophen-2-yl)-5-(4-propylpiperazin-1-yl)thiazol-2-yl]-4-(2-hydroxyethoxy)benzamide] | 18 nM | 97% |  |  | 
O=C1NC(=S)S/C1=C\c1ccc(C(=O)Nc2nc(-c3ccc(Cl)c(Cl)c3)cs2)cc1 [Control 1, reference compound] | 4.4 nM | 101% | <10% |  | 
O=C(Nc1nc(-c2cc(Cl)cs2)c(N2CCN(C3CCCCC3)CC2)s1)c1ccc(OCCO)c(Cl)c1 [Example 9, 3-chloro-N-[4-(4-chlorothiophen-2-yl)-5-(4-cyclohexylpiperazin-1-yl)thiazol-2-yl]-4-(2-hydroxyethoxy)benzamide hydrochloride] | 10 nM | 87% |  | 12 nM | 
Cc1sc(NC(=O)c2ccc(/C=C(\Cl)C(=O)O)cc2)nc1-c1cccc(C(F)(F)F)c1 [Control 3, reference compound] | 6.9 nM | 96% | <10% |  | 
O=C(O)/C(Cl)=C/c1ccc(C(=O)Nc2nc(-c3ccc(Cl)c(Cl)c3)cs2)cc1 [Control 2, reference compound] | 2.1 nM | 96% | <10% |  | 
O=C(Nc1nc(-c2cc(Cl)cs2)c(N2CCN(C3CCCCC3)CC2)s1)c1cnc(OCCCO)c(Cl)c1 [Example 250, 5-chloro-N-[4-(4-chlorothiophen-2-yl)-5-(4-cyclohexylpiperazin-1-yl)thiazol-2-yl]-6-(3-hydroxypropoxy)nicotinamide] | 6.7 nM | 87% |  | 26 nM | >80%
rhTPO: thrombopoietin (TPO), a c-Mpl ligand playing an important role in differentiation into megakaryocytes | 0.012 nM | 100% |  |  | 
Cl.O=C(Nc1nc(-c2cc(Cl)cs2)c(N2CCN(C3CCCCC3)CC2)s1)c1cnc(N2CCC(C(=O)O)CC2)c(Cl)c1 [Example 16, 1-(3-chloro-5-{[4-(4-chlorothiophen-2-yl)-5-(4-cyclohexylpiperzain-1-yl)thiazol-2-yl]carbamoyl}pyridin-2-yl)piperidine-4-carboxylic acid hydrochloride] | 2.4 nM | 93% |  |  | >80%
CCCC1CCN(c2sc(NC(=O)c3ccnc(OC)c3)nc2-c2cc(Cl)cs2)CC1 [Example 66] | 14 nM | 99% |  | 47 nM | 61%
O=C(Nc1nc(-c2cc(Cl)cs2)c(N2CCN(C3CCCCC3)CC2)s1)c1ccc2cnccc2c1 [Example 214, N-[4-(4-chlorothiophen-2-5-yl)-5-(4-cyclohexylpiperazin-1-yl)thiazol-2-yl]isoquinoline-6-carboxamide] | 15 nM | 106% |  |  | >80%

Source: patent US8338429B2, “2-acylaminothiazole derivative or salt thereof” (Astellas Pharma, Inc., priority 2002, dated 2012)
